Laboratory results reported in US20230093124A1, “Salts of Nintedanib and Crystalline Forms Thereof” (Apotex Inc., priority 2021, published 2023).

Assays:
[1] = Form stability at high temperature and humidity (uncovered vial in stability chamber, then PXRD / 1H NMR analysis); assay type: physicochemical; set-up: key to Form stability result (PXRD): NC: no change in PXRD; settings: 40° C./75% RH
Protocol: PXRD diffractograms were recorded on a Bruker D8 Discover powder X-ray diffractometer (Bruker AXS LLC, Karlsruhe, Germany). The sample holder was oscillated along X and Y axes during the measurement. The generator was a Incoatec Microfocus Source (IμS) Cu tube (λ=1.54060 Å) with a voltage of 50 kV and current of 1.00 mA, using a divergence slit of 0.3 mm and collimator of 0.3 mm. For each sample, one frame was collected using a still scan with a PILATUS3 R 100K-A detector at the distance of 154.72 mm from the sample. Raw data were evaluated using the program DIFFRAC.EVA (Bruker AXS LLC, Karlsruhe, Germany).
Samples were kept in an uncovered vial in a stability chamber maintained at 40° C./75% relative humidity (RH) for the specified period prior to PXRD analysis to evaluate form stability.

[2] = cited from earlier work
[3] = cited from earlier work; remark: listed apart in the source
[4] = cited from earlier work; remark: listed apart in the source

SMILES | Form stability result (PXRD) ([1]; 1 month) | Form stability result (PXRD) ([1]; 3 months) | further results
COC(=O)c1ccc2c(c1)NC(=O)C2=C(Nc1ccc(N(C)C(=O)CN2CCN(C)CC2)cc1)c1ccccc1.O=C(O)CCCC(=O)O [Nintedanib glutarate Form APO-I, nintedanib glutarate] | NC |  | 
CC1=CC(=O)NS(=O)(=O)O1.COC(=O)c1ccc2c(c1)NC(=O)C2=C(Nc1ccc(N(C)C(=O)CN2CCN(C)CC2)cc1)c1ccccc1 [Nintedanib acesulfamate Form APO-I, nintedanib acesulfamate] | NC |  | 
COC(=O)c1ccc2c(c1)NC(=O)C2=C(Nc1ccc(N(C)C(=O)CN2CCN(C)CC2)cc1)c1ccccc1.O=C(O)CNC(=O)c1ccccc1 [Nintedanib hippurate Form APO-I, nintedanib hippurate] |  | NC | 1H NMR spectroscopy following storage ([1]; after storage (3 months per Table 8)): no change
CC1=CC(=O)NS(=O)(=O)O1.CC1=CC(=O)NS(=O)(=O)O1.COC(=O)c1ccc2c(c1)NC(=O)C2=C(Nc1ccc(N(C)C(=O)CN2CCN(C)CC2)cc1)c1ccccc1 [Nintedanib diacesulfamate Form APO-I, nintedanib diacesulfamate] |  | NC | 
CC(=O)CCC(=O)O.COC(=O)c1ccc2c(c1)NC(=O)C2=C(Nc1ccc(N(C)C(=O)CN2CCN(C)CC2)cc1)c1ccccc1 [Nintedanib levulinate Form APO-I, nintedanib levulinate] |  | NC | 
COC(=O)c1ccc2c(c1)NC(=O)/C2=C(\Nc1ccc(N(C)C(=O)CN2CCN(C)CC2)cc1)c1ccccc1 [nintedanib esylate, (3Z)-2,3-dihydro-3-[[[4-[methyl[(4-methyl-1-piperazinyl)acetyl]amino]phenyl]amino]phenylmethylene]-2-oxo-1H-indole-6-carboxylic acid methyl ester] |  |  | Bioavailability in humans [2]: low; Solubility in neutral aqueous conditions [3]: poor; Chemical stability in the presence of water [4]: undergo hydrolysis
COC(=O)c1ccc2c(c1)NC(=O)C2=C(Nc1ccc(N(C)C(=O)CN2CCN(C)CC2)cc1)c1ccccc1.O=C1NS(=O)(=O)c2ccccc21 [Nintedanib saccharinate Form APO-I, nintedanib saccharinate] | NC |  | 
